For test [1], the system named is T-Rex 293 cell line SC3 cells having increased expression of androgen receptor protein due to exposure to doxycycline. Kind of test: Cellular growth inhibition, T-Rex 293 SC3 cells with doxycycline-induced androgen receptor (CellTiter-Glo 2.0, 72 hours). The format is cell-based. As to conditions: for GI50: T-Rex 293 SC3 cells with 10 ng/ml doxycycline (increased androgen receptor expression), 72 hours, CellTiter-Glo 2.0. The procedure: (§1) Ability of the test compounds to inhibit proliferation of the foregoing cell types was evaluated according to the procedures set forth below.
(§2) The doxycycline-inducible androgen receptor protein expressing cell line was established using the following protocol: T-Rex 293 cells were purchased from Invitrogen (Cat #R71007) and transfected using Lipofectamine 2000 with the wild-type androgen receptor protein sequence cloned into the pcDNA4/TO vector. Transfected cells were selected using 400 μg/mL Zeocin (Invitrogen Cat #R25001). Following selection, single clones were raised and maintained in Dulbecco's Modified Eagle Medium (DMEM) supplemented with 10% w/w Tetracycline-free fetal bovine serum (FBS) and 250 μg/mL Zeocin. Clones were analyzed for expression of androgen receptor protein in the presence and absence of 10 ng/ml doxycycline (Sigma Cat #D9891), and a single doxycycline-inducible clone (hereinafter “SC3”) was selected for use in downstream assays.
(§3) The SC3 cells were seeded on poly-D-lysine coated, black clear-bottom 384-well plates at 2500/well, in 25 μL Phenol Red Free Dulbecco's Modified Eagle Medium (DMEM) supplemented with 10% w/w charcoal-dextran treated fetal bovine serum (FBS) and 1% w/w pen-strep, with or without 10 ng/ml doxycycline. Pen-Strep is a commercially available mixture of penicillin G and streptomycin, which is used in mammalian cell culture media to prevent bacterial contamination. Phenol Red Free Dulbecco's Modified Eagle Medium (DMEM) supplemented with 10% w/w charcoal-dextran treated fetal bovine serum (FBS) and 1% w/w pen-strep, with or without 10 ng/mL doxycycline is herein referred to as Treatment Medium. Following seeding of cells in the plates, the plates were spun at 300×g for 30 seconds, then equilibrated to room temperature for 30 minutes, and then deposited in a humidified tissue culture incubator maintained at 37° C. with 5% CO2.
(§4) At 24 hours after seeding of the cells, dilutions of test compound were prepared in DMSO and dissolved in Treatment Medium, to achieve a final DMSO concentration of 0.5% w/w, thereby providing the Test Compound Solution. A 25 μL aliquot of the Test Compound Solution was added to cells in the well plates. An equal volume of a solution containing DMSO and Treatment Medium was used as a negative control. Following treatment of cells with Test Compound Solution or said equal volume of a solution containing DMSO and Treatment Medium, the plates were spun at 300×g for 30 seconds, and then left in an incubator for 72 hours.
(§5) At the end of the treatment duration, cell viability was quantified with CellTiter-Glo 2.0 reagent (Promega Cat #G9243). For this purpose, plates were equilibrated to room temperature for 30 minutes, and then 25 μL of CellTiter-Glo 2.0 reagent was added to cells in the plate wells. Plates were then agitated on a shaker for two minutes at 500 rpm and subsequently incubated at room temperature for 10 minutes. Following incubation, the plates were spun at 3000×g for 30 seconds, then sealed with an optical adhesive cover, and luminescence readings were measured with an En Vision Plate Reader.
(§6) Data was normalized using zero luminescence for baseline. A four-parameter non-linear regression curve fit was applied to dose-response data in GraphPad Prism data analysis software to determine the half-maximal growth inhibitory concentration (GI50) for each test compound.

Test [2] has as its system VCaP cells. Kind of test: Cellular growth inhibition assay for VCaP cells (CellTiter-Glo 2.0, 72 hours). The test is classed as cell-based, human. As to conditions: for GI50: CellTiter-Glo 2.0. The procedure: Exemplary compounds were tested for ability to inhibit the proliferation of VCaP cells. VCap cells are a commercially available human prostate cancer cell line.
VCaP cells were purchased from American Type Cell Culture (ATCC Cat #CRL2876) and then seeded on poly-D-lysine coated, black clear-bottom 384-well plates at 5000/well in 25 μL Dulbecco's Modified Eagle Medium (DMEM) supplemented with 10% w/w Fetal bovine serum (FBS) and 1% w/w Pen-Strep. Pen-Strep is a commercially available mixture of penicillin G and streptomycin, which is used in mammalian cell culture media to prevent bacterial contamination. Dulbecco's Modified Eagle Medium (DMEM) supplemented with 10% w/w fetal bovine serum (FBS) and 1% w/w Pen-Strep is herein referred to as Treatment Medium. Following seeding of cells in the plates, the plates were spun at 300×g for 30 seconds, then equilibrated to room temperature for 30 minutes, and then deposited in a humidified tissue culture incubator maintained at 37° C. with 5% CO2.
as §4, §5, §6
In general terms: In ATP-based viability assays light output follows the ATP content of the culture.

The test system of test [3] is T-Rex 293 cell line SC3 cells lacking increased expression of androgen receptor protein. Kind of test: Cellular growth inhibition, T-Rex 293 SC3 cells without doxycycline (CellTiter-Glo 2.0, 72 hours). The format is cell-based. As to conditions: T-Rex 293 SC3 cells not exposed to doxycycline (no increased androgen receptor expression). The procedure:
as §1, §2, §3, §4, §5, §6

Some results are limits rather than exact numbers.

As to `COc1cc(O[C@H]2CC[C@H](NC(=O)c3ccc(N4CCC5(CCN(c6ccc(C7=N[C@@H](C)c8nnc(C)n8-c8sc(C)c(C)c87)cc6Cl)CC5)C4)nn3)CC2)ccc1C#N` [Compound I-73, 6-[8-[2-chloro-4-[(9S)-4,5,9,13-tetramethyl-3-thia-1,8,11,12-tetrazatricyclo[8.3.0.0^2,6]trideca-2 (6),4,7,10,12-pentaen-7-yl]phenyl]-2,8-diazaspiro[4.5]decan-2-yl]-N-[4-(4-cyano-3-methoxy-phenoxy)cyclohexyl]pyridazine-3-carboxamide], the concentration for 50% growth inhibition (GI50) in test [1] is less than 500 nM; in test [2] (Homo sapiens, VCaP, 72 h), less than 500 nM; in test [3] (72 h) it was less than 500 nM.
Regarding `COc1cc(O[C@H]2CC[C@H](NC(=O)c3cnc(N4CCC5(CCC(c6ccc(C7=N[C@@H](C)c8nnc(C)n8-c8sc(C)c(C)c87)cc6)CC5)C4)nc3)CC2)ccc1C#N` (some centres unmarked) [Compound I-35], the GI50 in test [1] is less than 500 nM; in test [2] (Homo sapiens, VCaP, 72 h) it was less than 500 nM; in test [3] (72 h), less than 500 nM.
On to `COc1cc(O[C@H]2CC[C@H](NC(=O)c3ccc(N4CCC5(CCN(c6ccc(C7=NC(Cc8ncco8)c8nnc(C)n8-c8sc(C)c(C)c87)cc6F)CC5)C4)nn3)CC2)ccc1C#N` (single isomer, unassigned) [Compound I-134], for which the GI50 in test [1] is less than 500 nM; in test [2] (72 hours), more than 3000 nM; in test [3] it was more than 3000 nM.
Consider `COc1cc(O[C@H]2CC[C@H](NC(=O)c3ccc(N4CCC5(CC4)CC(Cc4ccc(C6=N[C@@H](Cc7ncco7)c7nnc(C)n7-c7sc(C)c(C)c76)c(F)c4)C5)nn3)CC2)ccc1C#N` [Compound I-125, N-[4-(4-cyano-3-methoxy-phenoxy)cyclohexyl]-6-[2-[[3-fluoro-4-[(9S)-4,5,13-trimethyl-9-(oxazol-2-ylmethyl)-3-thia-1,8,11,12-tetrazatricyclo[8.3.0.0^2,6]trideca-2 (6),4,7,10,12-pentaen-7-yl]phenyl]methyl]-7-azaspiro[3.5]nonan-7-yl]pyridazine-3-carboxamide], for which the concentration for 50% growth inhibition (GI50) in test [1] is less than 500 nM; in test [2] (Homo sapiens, VCaP, 72 h), less than 500 nM; in test [3] (72 h), less than 500 nM.
For `COc1cc(O[C@H]2CC[C@H](NC(=O)c3ccc(N4C[C@]5(C)CN(c6ccc(C7=N[C@@H](Cc8ncco8)c8nnc(C)n8-c8sc(C)c(C)c87)cc6)C[C@]5(C)C4)nn3)CC2)ccc1C#N` [Compound I-118], the GI50 in test [1] was less than 500 nM; in test [2] (Homo sapiens, VCaP, 72 h), less than 500 nM; in test [3] (72 h) it was less than 500 nM.
On to `COCC[C@@H]1N=C(c2ccc(C#CC3CC4(C3)CN(c3ccc(C(=O)NC5CCC(Oc6ccc(C#N)c(OC)c6)CC5)nn3)C4)cc2)c2c(sc(C)c2C)-n2c(C)nnc21` (stereo partly drawn) [Compound I-30, N-[4-(4-cyano-3-methoxy-phenoxy)cyclohexyl]-6-[6-[2-[4-[(9S)-9-(2-methoxyethyl)-4,5,13-trimethyl-3-thia-1,8,11,12-tetrazatricyclo[8.3.0.0^2,6]trideca-2 (6),4,7,10,12-pentaen-7-yl]phenyl]ethynyl]-2-azaspiro[3.3]heptan-2-yl]pyridazine-3-carboxamide], for which the 50% growth inhibitory concentration (GI50) in test [1], in test [2] (72 hours) and in test [3] was less than 500 nM each time.
In the case of `COc1cc(O[C@H]2CC[C@H](NC(=O)c3ccc(N4CCC5(CCN(c6ccc(C7=NC(Cc8ncco8)c8nnc(C)n8-c8sc(C)c(C)c87)c(C(F)(F)F)c6)CC5)C4)nn3)CC2)ccc1C#N` (some centres unmarked) [Compound I-137], the GI50 in test [1] was less than 500 nM; in test [2] (72 hours) it was less than 500 nM; in test [3], more than 3000 nM.
On to `CC[C@@H]1N=C(c2ccc(C3CCC4(CC3)CCN(c3ccc(C(=O)NC5CCC(Oc6ccc(C#N)c(OC)c6)CC5)nn3)C4)cc2)c2c(sc(C)c2C)-n2c(C)nnc21` (stereo partly drawn) [Compound I-41, N-((1r,4r)-4-(4-cyano-3-methoxyphenoxy)cyclohexyl)-6-(8-(4-((S)-6-ethyl-2,3,9-trimethyl-6H-thieno[3,2-f][1,2,4]triazolo[4,3-a][1,4]diazepin-4-yl)phenyl)-2-azaspiro[4.5]decan-2-yl) pyridazine-3-carboxamide], for which the concentration for 50% growth inhibition (GI50) in test [1], in test [2] (72 hours) and in test [3] was less than 500 nM in each case.
For the compound `COc1cc(O[C@H]2CC[C@H](NC(=O)c3ccc(N4CCC5(CCC(c6ccc(C7=N[C@@H](C)c8nnc(C)n8-c8sc(C)c(C)c87)cc6F)CC5)C4)nn3)CC2)ccc1C#N` (single isomer, unassigned) [Compound I-56], the 50% growth inhibitory concentration (GI50) in test [1] is less than 500 nM; in test [2] (Homo sapiens, VCaP, 72 h), less than 500 nM; in test [3] (72 h) it was less than 500 nM.
For the compound `COc1cc(O[C@H]2CC[C@H](NC(=O)c3ccc(N4CCC5(CCN(c6ccc(C7=N[C@@H](C)c8nnc(C)n8-c8sc(C)c(C)c87)cc6)CC5)C4)nc3)CC2)ccc1C#N` [Compound I-38], the concentration for 50% growth inhibition (GI50) in test [1] was less than 500 nM; in test [2] (Homo sapiens, VCaP, 72 h), less than 500 nM; in test [3] (72 h), less than 500 nM.
Regarding `COc1cc(O[C@H]2C(C)(C)[C@H](NC(=O)c3cnc(N4CCC5(CC4)CC(Cc4ccc(C6=N[C@@H](Cc7ncco7)c7nnc(C)n7-c7sc(C)c(C)c76)c(F)c4)C5)nc3)C2(C)C)ccc1C#N` [II-13], the GI50 in test [1] was less than 500 nM; in test [2] (Homo sapiens, VCaP, 72 h), less than 500 nM; in test [3] (72 h), less than 500 nM.
As for `COC[C@@H]1N=C(c2ccc(C3CCC4(CC3)CCN(c3ccc(C(=O)NC5CCC(Oc6ccc(C#N)c(OC(F)(F)F)c6)CC5)nn3)C4)cc2)c2c(sc(C)c2C)-n2c(C)nnc21` (stereo partly drawn) [Compound I-2, N-[4-[4-cyano-3-(trifluoromethoxy)phenoxy]cyclohexyl]-6-[8-[4-[(9R)-9-(methoxymethyl)-4,5,13-trimethyl-3-thia-1,8,11,12-tetrazatricyclo[8.3.0.0^2,6]trideca-2 (6),4,7,10,12-pentaen-7-yl]phenyl]-2-azaspiro[4.5]decan-2-yl]pyridazine-3-carboxamide], the GI50 in test [1] is less than 500 nM; in test [2] (Homo sapiens, VCaP, 72 h) it was less than 500 nM; in test [3] (72 h), less than 500 nM.
On to `COc1cc(O[C@H]2CC[C@H](NC(=O)c3ccc(N4CCC5(CC4)CC(Cc4ccc(C6=N[C@@H](Cc7ncco7)c7nnc(C)n7-c7sc(C)c(C)c76)cc4)C5)nn3)CC2)ccc1C#N` [Compound I-25, N-[4-(4-cyano-3-methoxy-phenoxy)cyclohexyl]-6-[2-[[4-[(9S)-4,5,13-trimethyl-9-(oxazol-2-ylmethyl)-3-thia-1,8,11,12-tetrazatricyclo[8.3.0.0^2,6]trideca-2 (6),4,7,10,12-pentaen-7-yl]phenyl]methyl]-7-azaspiro[3.5]nonan-7-yl]pyridazine-3-carboxamide], for which the “Ratio of GI50's” value in test [1] (GI50 of the top compound in the pair divided by GI50 of the lower compound, T-Rex 293 SC3 cells with doxycycline-induced androgen receptor) is recorded as 1; in test [2] (GI50 of the top compound in the pair divided by GI50 of the lower compound), 1. Also, the GI50 in test [1] was less than 500 nM; in test [2] (Homo sapiens, VCaP, 72 h) it was less than 500 nM; in test [3] (72 h) it was less than 500 nM.
Turning to `COc1cc(O[C@H]2CC[C@H](NC(=O)c3ccc(N4CCC5(CCN(c6ccc(C7=N[C@@H](C)c8nnc(C)n8-c8sc(C)c(C)c87)cc6)CC5)C4)cc3)CC2)ccc1C#N` [Compound I-55], the GI50 in test [1] was less than 500 nM; in test [2] (Homo sapiens, VCaP, 72 h), less than 500 nM; in test [3] (72 h) it was less than 500 nM.

Usually GI50 stands for the concentration giving 50% growth inhibition.

Source of the values: patent US12668599B2, “Heterobifunctional compounds and methods of treating disease” (Halda Therapeutics OpCo, Inc., priority 2023, dated 2026).
